Data taken from US11925656B2, “Biological total joint replacement” (priority 2014, dated 2024).
“Also recorded” adds a separate entry of the source.

Experiments:
[1] = test system: IGF-1; assay: IGF-1 in plasma, rabbit arthritis model; type: in vivo; conditions: for IGF-1 in the plasma: control group 25 PG/ML
From the text: (§1) The study was approved by the Institutional Animal Care and Use Committee (IACUC) of Thomas D. Morris, Inc. 28 New Zeeland White rabbits were selected for the study. Six such were randomly assigned to one of four groups; prophylactic cyanidin-3-glycoside (C3G)(referred to figures as Cl 1-42), prophylactic protocatechuic acid (PCA)(referred to in figures as PCA 1-42), therapeutic C3G (referred to in figures as Cl 42-70), and therapeutic PCA (referred to in figures as PCA 42-70). There were four controls, two each to the prophylactic and therapeutic groups.
(§2) The prophylactic groups were given PROC3G™ by Chromadex™ at a dose of 30 mg/kg of body weight of either C3G or PCA by mouth, 7 times per week for 42 days. The therapeutic groups' treatment was initiated on day 42 with a daily dose of PROC3G™ by Chromadex™ 7 times per week for 4 weeks. The dose of 30 mg of cyanidin-3-glucoside per kg of body weight calculates to be 0.177 millimoles per kg body weight. The dose of PCA was the same in terms of millimoles per kg body weight.
(§3) The experimental rabbits underwent surgery with an intent to create a severe degenerative arthritis by cutting the medial collateral ligament, the anterior cruciate ligament and removing the medial meniscus. A partial thickness laceration was made longitudinally on the lateral femoral condyle for future assessment of potential for repair. The surgery was performed by two licensed veterinarians. One surgeon was very experienced. The other surgeon was a recent graduate.
Blood testing was performed prior to necropsy on C3G, PCA, glucose, MMP-3 and IGF-1 to assess any systemic effects.

[2] = test system: TNF-alpha; assay: TNF-alpha in synovial fluid by ELISA, rabbit arthritis model; type: in vivo; conditions: therapeutic groups, oral 4 weeks, vs control; not statistically significant
From the text: as §1, §2
(§4) The experimental rabbits underwent surgery with an intent to create a severe degenerative arthritis by cutting the medial collateral ligament, the anterior cruciate ligament and removing the medial meniscus. […]
(§5) Synovial Fluid—Detected by ELISA

[3] = test system: human synovial explants; conditions: PCA directly applied; cited from earlier work
[4] = test system: ADAMTS-5; assay: ADAMTS-5 in synovial fluid by ELISA, rabbit arthritis model; type: in vivo; conditions: therapeutic groups, oral days 42-70, vs control
From the text: as §1, §2, §3
(§6) At necropsy, the synovial fluid was harvested percutaneously and upon arthrotomy. The synovium was harvested from posterior compartment. The patella and adjacent synovium was procured as a separate specimen as was the medial and lateral condyle.
(§7) The synovial fluid and half of the synovium was frozen and sent to BioBoston Laboratory for chemical analysis. The other half of the synovium and bone was sent to McClinchery Histology in Stockbridge, Mich. for histological preparation and staining. […]
as §5

[5] = test system: lubricin; assay: Lubricin expression in cartilage, immunohistochemical staining, rabbit arthritis model; type: in vivo; conditions: prophylactic, minimum of 30 mg/kilo gram body weight by oral route, compared to the controls
From the text: as §1, §2
as §3, with “The surgery was performed by two licensed veterinarians. One surgeon was very experienced. The other surgeon was a recent graduate.” left out

[6] = more powerful than vitamin E; cited from earlier work
[7] = test system: MMP-13; assay: MMP-13 in synovium by ELISA, rabbit surgically induced knee arthritis; type: in vivo; conditions: vs untreated control, not statistically significant
From the text: as §1, §2, §3, §6
(§8) The synovial fluid and half of the synovium was frozen and sent to BioBoston Laboratory for chemical analysis. The other half of the synovium and bone was sent to McClinchery Histology in Stockbridge, Mich. for histological preparation and staining. Patellar slides were sent to BioBoston Contract Laboratories for histochemical staining and ICRS grading. Sample slides were examined for Lubricin at Myron Spector laboratory.
(§9) Synovial Tissue (Synovium)—Detected by ELISA

[8] = test system: IL-1 beta; assay: IL-1 beta in synovium by ELISA, rabbit arthritis model; type: in vivo; conditions: therapeutic groups, oral days 42-70, vs control
From the text: as §1
(§10) The prophylactic groups were given PROC3G™ by Chromadex™ at a dose of 30 mg/kg of body weight of either C3G or PCA by mouth, 7 times per week for 42 days. The therapeutic groups' treatment was initiated on day 42 with a daily dose of PROC3G™ by Chromadex™ 7 times per week for 4 weeks. The dose of 30 mg of cyanidin-3-glucoside per kg of body weight calculates to be 0.177 millimoles per kg body weight. The dose of PCA was the same in terms of millimoles per kg body weight. […]
Interleukin-1 beta (IL-1p) also known as catabolic, is a cytokine protein. […] Increased production of IL-1B causes a number of different auto-inflammatory syndromes. • Synovial Fluid—Detected by ELISA • Levels of IL-1 beta were decreased in all groups. See FIG. 2A. • Synovial Tissue (Synovium)—Detected by ELISA

[9] = test system: IGF-1 gene expression; assay: IGF-1 gene expression in synovium by real-time PCR, rabbit arthritis model; type: in vivo; conditions: rabbits, either oral or intraarticular route
From the text: as §1, §10
See FIG. 5B. • Synovial Tissue (Synovium)-Detected by ELISA • IGF-1 was increased in all groups. See FIG. 8B. • Synovial Tissue (Synovium)-Gene Expression Level Detected by Real-Time PCR • IGF-1 was increased in all groups.

[10] = test system: human osteoblasts; conditions: in vitro, dose related; cited from earlier work
[11] = test system: aggrecan; assay: Aggrecan expression in patellar cartilage, rabbit arthritis model; type: in vivo; conditions: prophylactic, minimum of 30 mg/kilo gram body weight by oral route, compared to the controls
From the text: as §1, §2
as §3, with “The surgery was performed by two licensed veterinarians. One surgeon was very experienced. The other surgeon was a recent graduate.” left out

[12] = test system: MRSA and Pseudomonas; conditions: tape-stripped rodent backs contaminated with MRSA and Pseudomonas; cited from earlier work
[13] = test system: ADAMTS-5 gene expression; assay: ADAMTS-5 gene expression in synovium by real-time PCR, rabbit arthritis model; type: in vivo; conditions: therapeutic groups, oral days 42-70, vs control
From the text: as §1, §2, §4
Synovial Tissue (Synovium)—Gene Expression Level Detected by Real-Time PCR

[14] = test system: catabolic cytokine environment; assay: Cytokine environment in surgically created arthritic knee; type: in vivo; conditions: rabbits, either oral or intraarticular route
[15] = test system: C-reactive protein (CRP); assay: C-reactive protein (CRP) in plasma after knee surgery; type: in vivo, rabbit
Experimental: C-reactive protein (CRP) is a protein found in the blood plasma, the levels of which rise in response to inflammation (i.e., C-reactive protein is an acute-phase protein). Its physiological role is to bind to phosphocholine expressed on the surface of dead or dying cells (and some types of bacteria) in order to activate the complement system via the C1Q complex. CRP rises within two hours of the onset of inflammation, up to a 50,000-fold, and peaks at 48 hours. […] CRP is thus a screen for inflammation.
Knee surgery was performed to create a severe irreparable degenerative knee joint, which in turn elevated the CRP in the plasma to average of […]. A historical normal amount of CRP is 3.15 micrograms/mL. See Sun H, et al., Am J Pathol. October 2005; 167(4): 1139-1148. Rabbit CRP levels are close to the mean values of healthy middle-aged humans (2.82 mg/L) reported in the literature. See Ockene I S, et al., Clin Chem. 2001; 47:444-450.
The controls in the study were animals that had surgery and received no treatment. The prophylaxis test groups had the surgery and received 6 weeks of oral C-3-G or PCA 7 times per week as described in example 1. The therapeutic treatment group had surgery, received no treatment for 41 days and then at day 42 received oral C-3-G or PCA 7 times per week as described in example 1.

[16] = test system: lymphocytes; assay: Number of lymphocytes in synovial fluid, rabbit arthritis model; type: in vivo
From the text: as §1, §2, §3, §6
In addition to testing for the increase or decrease of various factors and cytokines, tests were run to count the number of white blood cells, including polymorphonuclear leukocytes (PMN), macrophages (Mac) and lymphocytes (Lym). […]

[17] = test system: collagen II; assay: Collagen II expression in cartilage, immunohistochemical staining, rabbit arthritis model; type: in vivo; conditions: prophylactic, minimum of 30 mg/kilo gram body weight by oral route, compared to the controls
From the text: as §1, §2
as §3, with “The surgery was performed by two licensed veterinarians. One surgeon was very experienced. The other surgeon was a recent graduate.” left out

[18] = test system: patellar articular cartilage; assay: ICRS histological visual scale scoring of patellar cartilage, rabbit arthritis model; type: in vivo; conditions: prophylactic, minimum of 30 mg/kilo gram body weight by oral route
From the text: International Cartilage Repair Society (ICRS) criteria are described for example in Hoemann, et al., (cited on Applicant's IDS), herein incorporated by reference.
as §1, §2, §4

[19] = test system: MMP3; assay: MMP3 in synovial fluid by ELISA, rabbit arthritis model; type: in vivo; conditions: therapeutic groups, oral days 42-70, vs control
From the text: as §1, §10
MMP3 is known as matrix metallopeptidase 3, or stromelysin 1 or progelatinase. […] See FIG. 2C. • Synovial Tissue (Synovium)—Detected by ELISA • MMP-3 levels were reduced in all four groups. See FIG. 9B. • Synovial Tissue (Synovium)—Gene Expression Level Detected by Real-Time PCR • MMP-3 gene expression was decreased in all groups. […]

[20] = test system: human mesenchymal stem cells; conditions: in vitro, dose related; cited from earlier work
[21] = test system: MMP-3; assay: MMP-3 expression in cartilage, histochemical staining and scoring, rabbit arthritis model; type: in vivo
From the text: as §1, §2, §3, §6, §8
MMP3 is known as matrix metallopeptidase 3, or stromelysin 1 or progelatinase. Proteins of the matrix metalloproteinase (MMP) family are involved in the breakdown of 20 extracellular matrix in normal physiological processes, such as embryonic development, reproduction, and tissue remodeling, as well as in disease processes, such as arthritis and metastasis. […] See FIG. 2C. • Synovial Tissue (Synovium)—Detected by ELISA • MMP-3 levels were reduced in all four groups. See FIG. 9B. • Synovial Tissue (Synovium)—Gene Expression Level Detected by Real-Time PCR • MMP-3 gene expression was decreased in all groups. See FIG. 13A. • Histochemical Scoring Analysis

[22] = test system: lubricin; assay: Lubricin in synovium by ELISA, rabbit arthritis model; type: in vivo; conditions: prophylactic groups, oral days 1-42, vs control
From the text: as §1, §2, §3, §6, §7, §9

[23] = human; cited from earlier work
[24] = prophylactic groups, oral days 1-42
[25] = therapeutic groups, oral days 42-70
[26] = prophylactic groups, oral days 1-42, vs control
[27] = therapeutic groups, oral days 42-70, vs control

SMILES: O=C(O)c1ccc(O)c(O)c1 [PCA, Protocatechuic acid (3,4-dihydroxybenzoic acid)]
- IGF-1 in the plasma, change vs control ([1]; prophylactic group, oral days 1-42, only group with an increase): increased
- IGF-1 in the plasma [1, 24]: 43.0 pg/mL
- IGF-1 in the plasma [1, 25]: 29.0 pg/mL
- TNF-alpha levels in synovial fluid [2]: slight increase
- IGF-1 in human synovial explants [3]: increased
- ADAMTS-5 in synovial fluid [4]: decreased
- lubricin on the articular cartilage surface [5]: increased
- antioxidant power relative to vitamin E [6]: 10 ×
- MMP-13 levels in synovium ([7]; prophylactic groups, oral 7 times per week days 1-42 (C3G 30 mg/kg, PCA 26.4 mg/kg)): very slightly decreased
- MMP-13 levels in synovium ([7]; therapeutic groups, oral 7 times per week days 42-70 (C3G 30 mg/kg, PCA 26.4 mg/kg)): increased slightly
- levels of IL-1 beta in synovium [8]: decreased
- IGF-1 genetic expression in the synovium [9]: increase
- bone making markers in human osteoblasts [10]: produce bone making markers
- aggrecan in articular cartilage ECM [11]: increased
- collagen layer in the dermis [12]: production of collagen layer in the dermis
- re-epithelialization of the skin wound [12]: re-epithelialization of the wound
- time to disinfect the wound [12]: 2 days
- ADAMTS-5 gene expression in synovium [13]: decreased
- catabolic cytokine environment in a surgically created arthritic knee [14]: reversing
- CRP, an indicator of inflammation ([15]; given by oral route immediately after injury): kept to normal levels
- plasma CRP level ([15]; prophylaxis test group, 6 weeks oral treatment from surgery, untreated control at 42 days 8.8 mg/mL): 3.6 micrograms/mL
- plasma CRP level ([15]; therapeutic group, no treatment for 6 weeks after surgery, then 4 weeks oral treatment): 43 mg/mL
- number of lymphocytes in synovial fluid [16, 26]: decreased
- number of lymphocytes in synovial fluid [16, 27]: decreased
- type II collagen in articular cartilage ECM [17]: increased
- articular cartilage cells ([18]; compared to the controls): unchanged in nature and spacing
- subchondral bone structure ([18]; without sclerosis or osteophyte formation): remained normal in structure
- MMP3 in synovial fluid [19]: decreased
- bone making markers in human mesenchymal stem cells [20]: produce bone making markers
- histochemical staining for the presence of MMP-3 in cartilage [21, 24]: no staining
- MMP-3 expression in cartilage [21, 26]: reduced
- histochemical staining for the presence of MMP-3 in cartilage [21, 25]: no staining
- MMP-3 expression in cartilage [21, 27]: reduced
- lubricin in synovium [22]: increased
- toxicity [23]: non-toxic; also recorded: no known human toxic effects
